Assay results reported in patent publication US20090068255A1, “USE OF MATRIX METALLOPROTEINASE INHIBITORS IN SKIN CARE” (priority 2007, published 2009).
Entries after “also recorded” stand apart in the source; their conditions may differ.

Columns and labels:
[1] = tested on: female subjects 40-65 years of age with mild to moderate skin aging; assay: Double-blind, placebo-controlled, randomized 16-week clinical study; dermatologist assessment of individual facial skin appearance parameters (scale 0-9); format: in vivo, human; settings: 16 weeks
Protocol: Photoaging of the skin typically manifests itself as worsening appearance of the skin, including an increased appearance of mottled hyperpigmentation, wrinkles, coarseness of skin, redness, and pores. In this study, the MMP inhibitor,
was evaluated in female subjects 40-65 years of age with mild to moderate skin aging to determine its benefit on the appearance of aging.
The study was designed as a double-blind, placebo-controlled, randomized 16-week clinical study to evaluate the benefit of the MMP inhibitor,
in reducing the appearance of aging. Subjects enrolled in the study were between 40-65 years of age with mild to moderate skin age scores. A randomization table was used to determine which subjects would receive the study cream and which would receive the placebo cream. Subjects were instructed to apply the assigned cream to their face twice a day (once in the morning and once in the evening) after their face was washed and dried. A pea-sized drop of the test article was applied to each quadrant of the face to form a thin layer over the entire face. Follow-up visits were scheduled at 2, 4, 8, 12, and 16 weeks after the cream application was started.
Subjects were instructed to apply the test or placebo cream to the face twice daily (once in the morning and once in the evening) over the entire 16 week study period. […]
The effect of the MMP inhibitor on the subject's skin was assessed using the Physician Global Assessment of facial skin appearance and the assessment of the following individual skin appearance parameters on a scale from 0 to 9: fine wrinkling, mottled hyperpigmentation, age spots, tactile roughness, coarse wrinkling, telangiectasia, pore size, sallow tone, and sag. […]
A Physician Global Assessment of facial skin appearance using the Griffiths scale (0-8) was performed at all study visits. […] An assessment of individual skin parameters including fine wrinkling, mottled hyperpigmentation, age spots, tactile roughness, coarse wrinkling, redness, pore size, sollowness, and sag was scored on a scale from 0-9 at all study visits based on the following table: […]

[2] = tested on: female subjects 40-65 years of age with mild to moderate skin aging; assay: Profilometry of silicone replicas of the crow's feet area in the 16-week clinical study; format: in vivo, human; settings: replicas at day 0, week 8, week 16, p<0.05
Protocol: The effect of the MMP inhibitor on the subject's skin was assessed using the Physician Global Assessment of facial skin appearance and the assessment of the following individual skin appearance parameters on a scale from 0 to 9: fine wrinkling, mottled hyperpigmentation, age spots, tactile roughness, coarse wrinkling, telangiectasia, pore size, sallow tone, and sag. The cosmetic appearance of telangiectasia may be perceived as increased facial redness. Other criteria were also used including profilometry of crow's feet region using silicone replicas.
Silicone replicas of the crow's feet area (“profilometry”) were made at day 0, week 8, and week 16.
For the silicone replicas, the data used in the statistical analyses was the change from baseline. Within-treatment analysis of the skin replica parameters changes from baseline were evaluated using Student's t-test for paired data. Between-treatment analyses were conducted utilizing analysis of covariance with the baseline value as the covariate.

O=C(NCc1ccc(-c2ccccc2)cc1)c1occc(=O)c1O [MMP inhibitor]
appearance of telangiectasia (redness), change from baseline relative to the placebo formulation ([1]; cream of Example 27 (0.20% MMP inhibitor) applied to the face twice daily, p<0.05 vs placebo): reduce the appearance of telangiectasia
appearance of pore size, active vs placebo group ([1]; cream of Example 27 applied to the face twice daily, Proc GLM time x treatment interaction p-value 0.02): improved appearance; also recorded: trending toward improvement
appearance of coarse wrinkles, active vs placebo group ([1]; cream of Example 27 applied to the face twice daily, Proc GLM time x treatment interaction p-value 0.06): improved appearance of coarse wrinkles; also recorded: trending toward improvement
coarse wrinkle depth and roughness by profilometry of silicone replica, treatment vs placebo group [2]: significant improvement; also recorded: consistent with the improvement of coarse wrinkle scores
